Source: article PMC5672931 (British Journal of Cancer, 2017)
Values joined by “and” are separate entries in the source; they are usually repeats but may differ in a detail not shown here. Equal entries are not always repeated.

Tests used:
[1] = test system: patients with advanced malignancies; test: safety and tolerability: adverse events; assay type: in vivo, human; conditions: for Diarrhoea / Fatigue / Nausea / Neutropenia / Vomiting / Abdominal pain / Alopecia / Anaemia / Decreased appetite / Dehydration / Dizziness / Febrile neutropenia / Headache / Hyperbilirubinemia / Hyperglycaemia / Hyperuricemia / Hypotension / Increased ALT / Increased AST / Increased alkaline phosphatase / Leukopenia / Pancytopenia / Thrombocytopenia / Bacterial sepsis: treatment-related
[2] = test system: Rb phosphorylation and other CDK targets in keratinocytes; test: CDK targets in skin biopsies; assay type: in vivo, human
advanced malignancies = test: anti-tumour activity, RECIST v. 1.0; assay type: in vivo, human; conditions: parts 1 and 2; extending to 30 cycles
[3] = test system: patients with advanced malignancies; test: phase 1 dose escalation: MAD, RP2D and dose-limiting toxicities; assay type: in vivo, human
CDK12 = conditions: ref Johnson et al, 2016; cited from earlier work
[4] = coadministration with aprepitant; ref Zhang et al, 2012; cited from earlier work
[5] = test system: PHA-stimulated lymphocytes in whole blood; test: ex vivo lymphocyte stimulation assay; assay type: cell-based, human
[6] = test system: Rb phosphorylation and other CDK targets in metastatic melanoma biopsies; test: CDK targets in paired tumour biopsies; assay type: in vivo, human; conditions: three patients with metastatic melanoma
[7] = 2-h infusion at RP2D 50 mg m^−2, fifteen patients, all grades
[8] = 8- and 24-h infusion n=26, all grades
[9] = 8- and 24-h infusion n=26, grade 3–4
[10] = 8-h infusions, 16 patients, all grades
[11] = 8-h infusions, 16 patients, grade 3 or 4
[12] = 24-h infusions, 10 patients, all grades
[13] = skin biopsies post- vs pre-treatment, 2-h infusions

For CCc1cnn2c(NCc3ccc[n+]([O-])c3)cc(N3CCCC[C@H]3CCO)nc12 [dinaciclib, Dinaciclib], the “deaths before study treatment was discontinued” value ([1]; one of gram-negative sepsis (29.6 mg m^−2, part 1), others related to progressive disease) was “Eight”, the SAE bacterial sepsis ([1]; part 1) was 2 (6%) n (%) and the SAE febrile neutropenia ([1]; part 1) was 2 (6%) n (%). The SAE hyperbilirubinemia ([1]; part 1) was 3 (8%) n (%), the SAE hypotension ([1]; part 1) was 3 (8%) n (%) and the “SAE increased AST” value ([1]; part 1) was 2 (6%) n (%). For the same compound, the SAE neutropenia ([1]; part 1) was 4 (11%) n (%), the SAE febrile neutropenia ([1]; part 2) was 2 (8%) n (%) and the SAE hypotension ([1]; part 2) was 3 (12%) n (%). The SAE neutropenia ([1]; part 2) was 2 (8%) n (%), the “patients with serious AEs (SAEs)” value ([1]; part 2 (8- and 24-h infusions)) was 10 (38%) n (%) and the Diarrhoea [1, 7] was 8 (53%) n (%). The Fatigue [1, 7] was 9 (60%) n (%), the Nausea [1, 7] was 12 (80%) n (%) and the Neutropenia [1, 7] was 9 (60%) n (%). The Vomiting [1, 7] was 11 (73%) n (%), the Abdominal pain ([1]; 2-h infusion n=35, all grades) was 2 (6) n (%) and the Alopecia ([1]; 2-h infusion n=35, all grades) was 4 (11) n (%). The Anaemia ([1]; 2-h infusion n=35, all grades) was 4 (11) n (%), the Decreased appetite ([1]; 2-h infusion n=35, all grades) was 5 (14) n (%) and the Dehydration ([1]; 2-h infusion n=35, all grades) was 3 (9) n (%). The Diarrhoea ([1]; 2-h infusion n=35, all grades) was 16 (46%) n (%) and 16 (46) n (%), the Dizziness ([1]; 2-h infusion n=35, all grades) was 3 (9) n (%) and the Fatigue ([1]; 2-h infusion n=35, all grades) was 13 (37%) n (%) and 13 (37) n (%). The Febrile neutropenia ([1]; 2-h infusion n=35, all grades) was 2 (6) n (%), the Headache ([1]; 2-h infusion n=35, all grades) was 4 (11) n (%) and the Hyperbilirubinemia ([1]; 2-h infusion n=35, all grades) was 3 (9) n (%). For the same compound, the Hyperglycaemia ([1]; 2-h infusion n=35, all grades) was 1 (3) n (%), the Hyperuricemia ([1]; 2-h infusion n=35, all grades) was 2 (6) n (%) and the Hypotension ([1]; 2-h infusion n=35, all grades) was 3 (9) n (%). The “Increased ALT” value ([1]; 2-h infusion n=35, all grades) was 4 (11) n (%), the “Increased AST” value ([1]; 2-h infusion n=35, all grades) was 6 (17) n (%) and the Increased alkaline phosphatase ([1]; 2-h infusion n=35, all grades) was 1 (3) n (%). The Leukopenia ([1]; 2-h infusion n=35, all grades) was 8 (23) n (%), the Nausea ([1]; 2-h infusion n=35, all grades) was 23 (66%) n (%) and 23 (66) n (%) and the Neutropenia ([1]; 2-h infusion n=35, all grades) was 18 (51%) n (%) and 18 (51) n (%). The Pancytopenia ([1]; 2-h infusion n=35, all grades) was 1 (3) n (%), the Thrombocytopenia ([1]; 2-h infusion n=35, all grades) was 1 (3) n (%) and the Vomiting ([1]; 2-h infusion n=35, all grades) was 23 (66%) n (%) and 23 (66) n (%). For the same compound, the Abdominal pain ([1]; 2-h infusion n=35, grade 3–4) was 0 n (%), the Alopecia ([1]; 2-h infusion n=35, grade 3–4) was 0 n (%) and the Anaemia ([1]; 2-h infusion n=35, grade 3–4) was 0 n (%). For the same compound, the Decreased appetite ([1]; 2-h infusion n=35, grade 3–4) was 0 n (%), the Dehydration ([1]; 2-h infusion n=35, grade 3–4) was 1 (3) n (%) and the Diarrhoea ([1]; 2-h infusion n=35, grade 3–4) was 0 n (%). The Dizziness ([1]; 2-h infusion n=35, grade 3–4) was 0 n (%), the Fatigue ([1]; 2-h infusion n=35, grade 3–4) was 0 n (%) and the Febrile neutropenia ([1]; 2-h infusion n=35, grade 3–4) was 2 (6%) n (%) and 2 (6) n (%). The Headache ([1]; 2-h infusion n=35, grade 3–4) was 0 n (%), the Hyperbilirubinemia ([1]; 2-h infusion n=35, grade 3–4) was 0 n (%) and the Hyperglycaemia ([1]; 2-h infusion n=35, grade 3–4) was 1 (3) n (%). The Hyperuricemia ([1]; 2-h infusion n=35, grade 3–4) was 2 (6%) n (%) and 2 (6) n (%), the Hypotension ([1]; 2-h infusion n=35, grade 3–4) was 1 (3) n (%) and the “Increased ALT” value ([1]; 2-h infusion n=35, grade 3–4) was 2 (6%) n (%) and 2 (6) n (%). For the same compound, the “Increased AST” value ([1]; 2-h infusion n=35, grade 3–4) was 3 (9%) n (%) and 3 (9) n (%), the Increased alkaline phosphatase ([1]; 2-h infusion n=35, grade 3–4) was 1 (3) n (%) and the Leukopenia ([1]; 2-h infusion n=35, grade 3–4) was 6 (17%) n (%) and 6 (17) n (%). The Nausea ([1]; 2-h infusion n=35, grade 3–4) was 0 n (%), the Neutropenia ([1]; 2-h infusion n=35, grade 3–4) was 16 (46%) n (%) and 16 (46) n (%) and the Pancytopenia ([1]; 2-h infusion n=35, grade 3–4) was 1 (3) n (%). The Thrombocytopenia ([1]; 2-h infusion n=35, grade 3–4) was 1 (3) n (%), the Vomiting ([1]; 2-h infusion n=35, grade 3–4) was 1 (3) n (%) and the Abdominal pain [1, 8] was 1 (4) n (%). The Alopecia [1, 8] was 2 (8) n (%), the Anaemia [1, 8] was 3 (12) n (%) and the Bacterial sepsis [1, 8] was 1 (4) n (%). For the same compound, the Decreased appetite [1, 8] was 2 (8) n (%), the Dehydration [1, 8] was 2 (8) n (%) and the Diarrhoea [1, 8] was 7 (27) n (%). The Dizziness [1, 8] was 2 (8) n (%), the Fatigue [1, 8] was 10 (38) n (%) and the Febrile neutropenia [1, 8] was 2 (8) n (%). For the same compound, the Headache [1, 8] was 0 n (%), the Hyperbilirubinemia [1, 8] was 1 (4) n (%) and the Hyperglycaemia [1, 8] was 0 n (%). For the same compound, the Hyperuricemia [1, 8] was 0 n (%), the Hypotension [1, 8] was 5 (19) n (%) and the “Increased ALT” value [1, 8] was 1 (4) n (%). The “Increased AST” value [1, 8] was 2 (8) n (%), the Increased alkaline phosphatase [1, 8] was 3 (12) n (%) and the Leukopenia [1, 8] was 0 n (%). The Nausea [1, 8] was 9 (35) n (%), the Neutropenia [1, 8] was 7 (27) n (%) and the Pancytopenia [1, 8] was 0 n (%). The Thrombocytopenia [1, 8] was 1 (4) n (%), the Vomiting [1, 8] was 7 (27) n (%) and the Abdominal pain [1, 9] was 1 (4) n (%). For the same compound, the Alopecia [1, 9] was 0 n (%), the Anaemia [1, 9] was 0 n (%) and the Bacterial sepsis [1, 9] was 1 (4) n (%). The Decreased appetite [1, 9] was 0 n (%), the Dehydration [1, 9] was 0 n (%) and the Diarrhoea [1, 9] was 0 n (%). For the same compound, the Dizziness [1, 9] was 0 n (%), the Fatigue [1, 9] was 2 (8) n (%) and the Febrile neutropenia [1, 9] was 2 (8) n (%). For the same compound, the Headache [1, 9] was 0 n (%), the Hyperbilirubinemia [1, 9] was 1 (4) n (%) and the Hyperglycaemia [1, 9] was 0 n (%). The Hyperuricemia [1, 9] was 0 n (%), the Hypotension [1, 9] was 2 (8) n (%) and the “Increased ALT” value [1, 9] was 0 n (%). The “Increased AST” value [1, 9] was 1 (4) n (%), the Increased alkaline phosphatase [1, 9] was 2 (8) n (%) and the Leukopenia [1, 9] was 0 n (%). For the same compound, the Nausea [1, 9] was 0 n (%), the Neutropenia [1, 9] was 6 (23) n (%) and the Pancytopenia [1, 9] was 0 n (%). For the same compound, the Thrombocytopenia [1, 9] was 0 n (%), the Vomiting [1, 9] was 0 n (%) and the Diarrhoea [1, 10] was 7 (44%) n (%). The Fatigue [1, 10] was 8 (50%) n (%), the Nausea [1, 10] was 7 (44%) n (%) and the Neutropenia [1, 10] was 7 (44%) n (%). For the same compound, the Vomiting [1, 10] was 6 (38%) n (%), the Febrile neutropenia [1, 11] was 2 (13%) n (%) and the Hypotension [1, 11] was 2 (13%) n (%). For the same compound, the Neutropenia [1, 11] was 6 (38%) n (%), the Fatigue [1, 12] was 2 (20%) n (%) and the “Increased AST” value [1, 12] was 2 (20%) n (%). The Increased alkaline phosphatase [1, 12] was 2 (20%) n (%), the Nausea [1, 12] was 2 (20%) n (%) and the Fatigue ([1]; 24-h infusions, 10 patients, grade 3 or 4) was 2 (20%) n (%). The “cyclin D1 levels” value [2, 13] was “decreased”, the “p27^Kip1 levels” value [2, 13] was “relatively stable” and the p53 levels [2, 13] was “increased”. The Ki-67 staining ([2]; skin biopsies post-treatment) was “no substantial reduction”, the “degree of changes of Rb/CDK markers” value ([2]; skin biopsies, 8-h infusions) was “overall similar to that observed after 2-h infusions” and the “patients with stable disease for at least six treatment cycles” value (advanced malignancies) was “eight”. The “recommended phase 2 dose (RP2D)” value ([3]; 2-h i.v. infusion every 21 days) was 50 mg m^−2, the “maximum administered dose (MAD)” value ([3]; 2-h infusion) was 58 mg m^−2 and the “No of subjects with DLT in cycle 1” value ([3]; 2-hour infusion, 50 mg/m2 (RP2D), 15 subjects treated) was 4 of 15. The “recommended phase 2 dose (RP2D)” value ([3]; 8-h i.v. infusion every 3 weeks) was 7.4 mg m^−2, the “recommended phase 2 dose (RP2D) / highest safe dose” value ([3]; 24-h i.v. infusion every 3 weeks) was 10.4 mg m^−2 and the CDK12 inhibition (CDK12) was “CDK12 inhibition by dinaciclib has also been demonstrated”. The “effect of aprepitant on dinaciclib PK parameters” value [4] was “does not significantly alter dinaciclib PK parameters”, the “dose achieving reductions to <5% BrdU incorporation” value ([5]; 2-h infusions) was ≥ 7.4 mg m^−2 and the “dose reproducibly achieving a sustained PD effect through 8 h” value ([5]; 2-h infusions) was ≥ 29.6 mg m^−2. The “plasma concentration at which reductions to <5% BrdU incorporation were observed” value ([5]; 2-h infusions) was ~200 ng/mL, the “dose achieving suppression of lymphocyte proliferation” value ([5]; 8-h infusions) was ≥ 7.4 mg m^−2 and the “patients with pharmacodynamic reductions in BrdU incorporation” value ([5]; part 1, 2-h infusions) was 24 of 35. The “patients with reduction of PHA-stimulated BrdU incorporation to <5% at at least one post-dose time point” value ([5]; part 1, of the 24 patients with reductions) was 23, the “expression of Rb phosphorylated at S795” value [6] was “reduced expression” and the “expression of Rb phosphorylated at T356” value [6] was “reduced expression”. For the same compound, the “expression of Rb phosphorylated at other sites and of total Rb” value [6] was “overall preserved expression” and the “increases in p27^Kip1 and p53 post-treatment” value [6] was “occurred in two samples”.
